In ChEMBL document CHEMBL3044890, “Peroxidizing Phytotoxicities of 1, 2-Alkylene-1, 2, 4-triazolidines and 3, 4-Alkylene-1, 3, 4-thiadiazolidines” (J Pestic Sci, 1996):

The molecules below were run against T1, Protoporphyrinogen IX oxidase (Zea mays, UniProt Q9FYV8) (assay: Inhibition of Zea mays cv. Anjou (maize) plastid Protoporphyrinogen IX oxidase assessed as inhibition of protoporphyrin IX by fluorescence spectrophotometry). Conditions: read-out: pI50 (converted).
T1 sequence (Q9FYV8 whole entry): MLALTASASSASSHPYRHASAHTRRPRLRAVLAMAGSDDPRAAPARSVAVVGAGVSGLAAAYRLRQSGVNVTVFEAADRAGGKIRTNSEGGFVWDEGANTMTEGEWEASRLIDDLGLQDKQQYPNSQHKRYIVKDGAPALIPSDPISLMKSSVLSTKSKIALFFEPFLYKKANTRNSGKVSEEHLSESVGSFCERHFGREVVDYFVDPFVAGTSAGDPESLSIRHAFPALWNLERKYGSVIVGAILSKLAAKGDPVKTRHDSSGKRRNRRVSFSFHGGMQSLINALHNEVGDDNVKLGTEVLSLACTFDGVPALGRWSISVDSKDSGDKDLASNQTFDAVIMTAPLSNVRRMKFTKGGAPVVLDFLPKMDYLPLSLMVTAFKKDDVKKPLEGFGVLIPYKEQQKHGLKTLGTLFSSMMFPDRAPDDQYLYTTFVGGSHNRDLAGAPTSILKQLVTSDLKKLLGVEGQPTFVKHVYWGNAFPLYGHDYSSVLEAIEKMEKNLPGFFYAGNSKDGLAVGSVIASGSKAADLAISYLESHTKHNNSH

Structure (SMILES) | IC50
S=c1n(-c2ccc(Br)cc2)c(=S)n2n1CCC2 | 28.8 nM
S=c1n(-c2ccc(Br)cc2)c(=S)n2n1CCCCC2 | 70.8 nM
O=c1n(-c2ccc(Br)cc2)c(=S)n2n1CCCC2 | 12.9 nM
O=c1n(-c2ccc(Br)cc2)c(=O)n2n1CCCCC2 | 2510 nM
O=c1s/c(=N\c2ccc(Br)cc2)n2n1CCC2 | 3630 nM
O=c1n(-c2ccc(Br)cc2)c(=S)n2n1CCC2 | 53.7 nM
O=c1n(-c2ccc(Br)cc2)c(=O)n2n1CCC2 | 617 nM

Other lines, results leading:

IC50 | Structure (SMILES)
324 nM | S=c1s/c(=N\c2ccc(Br)cc2)n2n1CCC2
339 nM | O=c1n(-c2ccc(Br)cc2)c(=O)n2n1CCCC2
129 nM | O=c1n(-c2ccc(Br)cc2)c(=S)n2n1CCCCC2
50.1 nM | O=C1C2=C(CCCC2)C(=O)N1c1ccc(Br)cc1
